Tested on: mouse lung cancer 3LL
Assay: Combined use with CPA in subcutaneously mouse lung cancer 3LL-transplanted model (Example 35)
Type: in vivo
Settings: CPA 2 mg/mouse/day i.p. days 4-7; anti-FSTL1 antibody 5 mg/kg i.p. days 8 and 11

With `O=P1(N(CCCl)CCCl)NCCCO1` (stereo not shown) [CPA, cyclophosphamide] as the compound, how does the “subcutaneous tumor growth / antitumor effect” value read?
Its value is “strongly suppressed subcutaneous tumor growth”.

From patent publication US20180021429A1, “ANTICANCER AGENTS OR ANTIMETASTATIC AGENTS USING FSTL1 AND COMBINATION DRUG THEREOF” (PHARMA FOODS INTERNATIONAL CO., LTD., priority 2015, published 2018)
